Measurements: ChEMBL document CHEMBL1201862, “PubChem BioAssay data set” (2004)
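Briefly, cells in 96-well plates were exposed to five compound concentrations for 48 h, and endpoints were estimated by linear interpolation. Abbreviation: GI50, concentration required for 50% inhibition of growth.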 Activity calls are given as the source filed them. No stated cut-off is given here; in the data, active = GI50 up to about 1.1 µM and inactive = higher.

Tests used:
Assay in all cases: NCI tumour cell line growth inhibition, 48 h
786-0 = tested on: 786-0
A498 = tested on: A498
A549 = tested on: A549
ACHN = tested on: ACHN
BT-549 = tested on: BT-549
CAKI-1 = tested on: CAKI-1
CCRF-CEM = tested on: CCRF-CEM
COLO 205 = tested on: COLO 205
DU-145 = tested on: DU-145
EKVX = tested on: EKVX
HCC 2998 = tested on: HCC 2998
HCT-116 = tested on: HCT-116
HCT-15 = tested on: HCT-15
HL-60 = tested on: HL-60
HOP-62 = tested on: HOP-62
HOP-92 = tested on: HOP-92
HT-29 = tested on: HT-29
Hs-578T = tested on: Hs-578T
IGROV-1 = tested on: IGROV-1
K562 = tested on: K562
KM12 = tested on: KM12
LOX IMVI = tested on: LOX IMVI
M14 = tested on: M14
MCF7 = tested on: MCF7
MDA-MB-231 = tested on: MDA-MB-231
MDA-MB-435 = tested on: MDA-MB-435
MOLT-4 = tested on: MOLT-4
Malme-3M = tested on: Malme-3M
NCI-H226 = tested on: NCI-H226
NCI-H23 = tested on: NCI-H23
NCI-H460 = tested on: NCI-H460
NCI-H522 = tested on: NCI-H522
NCI/ADR-RES = tested on: NCI/ADR-RES
OVCAR-3 = tested on: OVCAR-3
OVCAR-4 = tested on: OVCAR-4
OVCAR-5 = tested on: OVCAR-5
OVCAR-8 = tested on: OVCAR-8
PC-3 = tested on: PC-3
RPMI-8226 = tested on: RPMI-8226
RXF 393 = tested on: RXF 393
SF-268 = tested on: SF-268
SF-295 = tested on: SF-295
SK-MEL-2 = tested on: SK-MEL-2
SK-MEL-5 = tested on: SK-MEL-5
SK-OV-3 = tested on: SK-OV-3
SN12C = tested on: SN12C
SNB-19 = tested on: SNB-19
SNB-75 = tested on: SNB-75
SW-620 = tested on: SW-620
T47D = tested on: T47D
TK-10 = tested on: TK-10
U-251 = tested on: U-251
UACC-257 = tested on: UACC-257
UACC-62 = tested on: UACC-62
UO-31 = tested on: UO-31
MDA-N = tested on: MDA-N
SK-MEL-28 = tested on: SK-MEL-28

In the case of OCC1OC(n2cnc3c(Cl)nc(Nc4ccc(Cl)c(Cl)c4)nc32)CC1O (centres undefined), the GI50 (786-0) is reported as 8.73 µM (inactive), the GI50 (A498) is reported as 10.7 µM (inactive) and the GI50 (A549) is reported as 14.2 µM (inactive). For the same compound, the GI50 (ACHN) was 8.69 µM (inactive), the GI50 (BT-549) was 9.98 µM (inactive) and the GI50 (CAKI-1) was 16.3 µM (inactive). The GI50 (CCRF-CEM) was 8.65 µM (inactive), the GI50 (COLO 205) was 11 µM (inactive) and the GI50 (DU-145) was 11.6 µM (inactive). For the same compound, the GI50 (EKVX) was 9.98 µM (inactive), the GI50 (HCC 2998) was 7.8 µM (inactive) and the GI50 (HCT-116) was 11 µM (inactive). The GI50 (HCT-15) was 8.63 µM, the GI50 (HL-60) was 7.05 µM (inactive) and the GI50 (HOP-62) was 10.5 µM (inactive). The GI50 (HOP-92) was 8.18 µM (inactive), the GI50 (HT-29) was 7.71 µM (inactive) and the GI50 (Hs-578T) was 13.2 µM (inactive). For the same compound, the GI50 (IGROV-1) was 11.9 µM (inactive), the GI50 (K562) was 8.63 µM (inactive) and the GI50 (KM12) was 8.83 µM (inactive). The GI50 (LOX IMVI) was 7.78 µM (inactive), the GI50 (M14) was 10.7 µM (inactive) and the GI50 (MCF7) was 11 µM (inactive). The GI50 (MDA-MB-231) was 11.8 µM (inactive), the GI50 (MDA-MB-435) was 9.38 µM (inactive) and the GI50 (MOLT-4) was 5.02 µM (inactive). The GI50 (Malme-3M) was 12 µM (inactive), the GI50 (NCI-H226) was 8.15 µM (inactive) and the GI50 (NCI-H23) was 10.2 µM (inactive). For the same compound, the GI50 (NCI-H460) was 7.91 µM (inactive), the GI50 (NCI-H522) was 9.29 µM (inactive) and the GI50 (NCI/ADR-RES) was 10.4 µM (inactive). The GI50 (OVCAR-3) was 12.2 µM (inactive), the GI50 (OVCAR-4) was 10.1 µM (inactive) and the GI50 (OVCAR-5) was 13.8 µM (inactive). The GI50 (OVCAR-8) was 10.3 µM (inactive), the GI50 (PC-3) was 9.57 µM (inactive) and the GI50 (RPMI-8226) was 8.13 µM (inactive). The GI50 (RXF 393) was 10.3 µM (inactive), the GI50 (SF-268) was 12.7 µM (inactive) and the GI50 (SF-295) was 7.98 µM (inactive). For the same compound, the GI50 (SK-MEL-2) was 9.53 µM (inactive), the GI50 (SK-MEL-5) was 8.34 µM (inactive) and the GI50 (SK-OV-3) was 13.6 µM (inactive). For the same compound, the GI50 (SN12C) was 10.5 µM (inactive), the GI50 (SNB-19) was 20.5 µM (inactive) and the GI50 (SNB-75) was 15.7 µM (inactive). The GI50 (SW-620) was 11.9 µM (inactive), the GI50 (T47D) was 13.3 µM (inactive) and the GI50 (TK-10) was 8.36 µM (inactive). The GI50 (U-251) was 10.2 µM (inactive), the GI50 (UACC-257) was 9.48 µM (inactive) and the GI50 (UACC-62) was 8.73 µM (inactive). For the same compound, the GI50 (UO-31) was 11.6 µM (inactive).

In the case of COc1ccc(-c2csc(Cc3nc4ccccc4c(=O)n3-c3ccc(Cl)cc3)n2)cc1, the GI50 (786-0) is reported as 28.6 µM (inactive), the GI50 (A498) is reported as 70.8 µM (inactive) and the GI50 (A549) is reported as 22.7 µM (inactive). The GI50 (ACHN) was 30.9 µM (inactive), the GI50 (BT-549) was 45 µM (inactive) and the GI50 (CAKI-1) was > 100 µM (inactive). For the same compound, the GI50 (CCRF-CEM) was 28.9 µM (inactive), the GI50 (COLO 205) was 34.9 µM (inactive) and the GI50 (DU-145) was 84.5 µM (inactive). The GI50 (EKVX) was 18.2 µM (inactive), the GI50 (HCC 2998) was 29.9 µM (inactive) and the GI50 (HCT-116) was 19.8 µM (inactive). The GI50 (HCT-15) was 29.1 µM, the GI50 (HL-60) was 32.6 µM (inactive) and the GI50 (HOP-62) was > 100 µM (inactive). The GI50 (HT-29) was 35.6 µM (inactive), the GI50 (Hs-578T) was > 100 µM (inactive) and the GI50 (IGROV-1) was 32.7 µM (inactive). The GI50 (K562) was 14.6 µM (inactive), the GI50 (KM12) was 31 µM (inactive) and the GI50 (LOX IMVI) was 39.4 µM (inactive). The GI50 (M14) was 21.7 µM (inactive), the GI50 (MCF7) was 32.8 µM (inactive) and the GI50 (MDA-MB-231) was 60.7 µM (inactive). For the same compound, the GI50 (MDA-MB-435) was 28.5 µM (inactive), the GI50 (MDA-N) was 22.7 µM (inactive) and the GI50 (MOLT-4) was 20 µM (inactive). For the same compound, the GI50 (Malme-3M) was > 100 µM (inactive), the GI50 (NCI-H226) was 74.6 µM (inactive) and the GI50 (NCI-H23) was 28.8 µM (inactive). The GI50 (NCI-H460) was 33.5 µM (inactive), the GI50 (NCI-H522) was 45.7 µM (inactive) and the GI50 (NCI/ADR-RES) was 56.1 µM (inactive). For the same compound, the GI50 (OVCAR-3) was 40.5 µM (inactive), the GI50 (OVCAR-4) was 52.6 µM (inactive) and the GI50 (OVCAR-5) was 23.9 µM (inactive). For the same compound, the GI50 (OVCAR-8) was 57.7 µM (inactive), the GI50 (PC-3) was 29.4 µM (inactive) and the GI50 (RPMI-8226) was 15.9 µM (inactive). For the same compound, the GI50 (RXF 393) was > 100 µM (inactive), the GI50 (SF-268) was 27.5 µM (inactive) and the GI50 (SF-295) was 50.4 µM (inactive). For the same compound, the GI50 (SK-MEL-28) was 27 µM (inactive), the GI50 (SK-MEL-2) was 17.8 µM (inactive) and the GI50 (SK-MEL-5) was 19.3 µM (inactive). The GI50 (SK-OV-3) was > 100 µM (inactive), the GI50 (SNB-19) was 24.4 µM (inactive) and the GI50 (SNB-75) was > 100 µM (inactive). For the same compound, the GI50 (SW-620) was 58.3 µM (inactive), the GI50 (TK-10) was > 100 µM (inactive) and the GI50 (U-251) was 32.2 µM (inactive). For the same compound, the GI50 (UACC-257) was 51.1 µM (inactive), the GI50 (UACC-62) was 18.5 µM (inactive) and the GI50 (UO-31) was 34.6 µM (inactive).
